Results reported in patent US20230257367A1, “NOVEL THYROID HORMONE BETA RECEPTOR AGONIST” (Chengdu Kanghong Pharmaceutical Co., Ltd., priority 2020, published 2023).
Read-outs that look alike come from different tables or passages of the source.

How the values were obtained:
[1] = target: T1, TRβ-LBD/RXRα (Homo sapiens, UniProt P10828); assay: In vitro binding experiment (TR-FRET SRC2-2 co-activator peptide recruitment), TRβ; format: biochemical; conditions: 4 h incubation at room temperature
T1 construct: TRβ-LBD (Invitrogen, PV4764) with a GST tag were used; purchased Invitrogen (TRβ-LBD); Pharmaron (RXRα) PV4764

[2] = target: T2, TRβ (Homo sapiens, UniProt P10828); assay: In vitro TRβ cell transfection experiment (GAL4 luciferase reporter, HEK293T); format: cell-based
T2 construct: host or cells: HEK293T
T2 sequence (P10828 217-461 limits assumed): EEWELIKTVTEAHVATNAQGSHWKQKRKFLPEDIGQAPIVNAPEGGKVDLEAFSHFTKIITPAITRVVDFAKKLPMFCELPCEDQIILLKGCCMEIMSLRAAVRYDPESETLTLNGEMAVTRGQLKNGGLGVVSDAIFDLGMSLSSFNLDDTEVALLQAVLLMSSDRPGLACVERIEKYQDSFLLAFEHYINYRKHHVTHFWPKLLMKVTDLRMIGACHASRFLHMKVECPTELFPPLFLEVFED
T2 sequence (P19793 227-458 partner limits assumed): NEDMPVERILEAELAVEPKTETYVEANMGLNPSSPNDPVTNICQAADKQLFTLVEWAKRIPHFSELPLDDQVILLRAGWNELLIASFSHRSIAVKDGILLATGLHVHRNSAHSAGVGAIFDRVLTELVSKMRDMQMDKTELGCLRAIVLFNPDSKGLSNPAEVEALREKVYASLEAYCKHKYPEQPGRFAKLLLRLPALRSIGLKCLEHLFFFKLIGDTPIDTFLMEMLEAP

[3] = PK experiment of cynomolgus monkeys; format: in vivo; conditions: cynomolgus monkey, plasma; for half-life / AUC(0-t) / Cmax: single dose; for half-life: male cynomolgus monkeys, read-out: Half-life period (T1/2) (converted); for AUC(0-t): read-out: Area under the curve AUC(0-t) in the case of administration; for Cmax: read-out: Peak concentration Cmax
Excerpt: The purpose of this experiment was to evaluate the pharmacokinetic behavior of the compound to be tested after single intravenous and intragastric administration, and to study the bioavailability after intragastric administration, providing animal experimental data for clinical studies.
Preparation of solutions for intravenous injection and intragastric administration: an appropriate amount of compound to be tested was accurately weighed, and mixed with a suitable solvent (5 vol % DMSO+10 vol % polyethylene glycol−15-hydroxystearate+85 vol % normal saline). After vortex, or ultrasound processing, a clear and transparent solution (the solution for intravenous injection administration), or a uniform suspension was obtained. The solution administrated by intravenous injection needed to be filtered through a 0.22 μm filter membrane
Experimental design: before the first dose the cynomolgus monkeys were divided into 2 groups by body weight with 3 male cynomolgus monkeys in each group, where animals in group 1 were given the compound to be tested (1 mg/kg) by single intravenous injection (IV); and animals in the 2rd group were administrated with the compound to be tested (5 mg/kg) by single intragastric administration (PO). The animals were weighed before administration, and dosages were calculated based on the weights of the animals.
Sample collection: a whole blood sample (about 0.2 mL) was collected at a specified time by venipuncture of an upper limb (or other suitable blood collection sites), and the actual blood collection time was recorded in test records. The acceptable error for one acquisition time point within 1 hour after administration is ±1 minute, and the acceptable error for other time points is ±5% of the theoretical time. All blood samples were immediately transferred to a labeled commercial centrifuge tube containing K2-EDTA. After blood sample collection, the blood sample was centrifuged at 4° C. and 3,200 g for 10 minutes, the supernatant plasma was sucked, quickly put in dry ice, and kept in a refrigerator at −70±10° C. for LC-MS/MS analysis. The collection time of both groups was 0.083 hour, 0.25 hour, 0.5 hour, 1 hour, 2 hours, 4 hours, 8 hours and 24 hours after administration.
Data processing: Area under the curve (AUC(0-t) and AUC(0-∞)), elimination half-life (T½), peak concentration (Cmax), time to reach maximum plasma concentration (Tmax), etc., were calculated by the non-compartment analysis module in Phoenix WinNonlin 7.0.

T1 sequence (P19793 whole entry partner, other chains not shown, the tested form may be a part): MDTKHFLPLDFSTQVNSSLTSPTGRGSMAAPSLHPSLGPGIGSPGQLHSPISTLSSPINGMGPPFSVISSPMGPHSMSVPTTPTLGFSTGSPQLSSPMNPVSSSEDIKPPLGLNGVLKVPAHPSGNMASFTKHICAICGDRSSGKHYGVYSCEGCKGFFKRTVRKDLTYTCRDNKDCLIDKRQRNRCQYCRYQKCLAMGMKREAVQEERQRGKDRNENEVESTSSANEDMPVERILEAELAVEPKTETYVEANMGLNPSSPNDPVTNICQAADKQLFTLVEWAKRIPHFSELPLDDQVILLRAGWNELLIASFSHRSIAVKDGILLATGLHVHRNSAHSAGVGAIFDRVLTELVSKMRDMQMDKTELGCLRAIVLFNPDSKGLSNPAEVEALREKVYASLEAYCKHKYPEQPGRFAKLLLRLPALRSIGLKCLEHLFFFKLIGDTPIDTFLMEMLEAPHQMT

EC50 [1]: 0.007 µM
EC50 [2]: 0.009 µM
half-life ([3]; IV, 1 mg/kg): 9 h
half-life ([3]; PO, 5 mg/kg): 16.7 h
bioavailability ([3]; male, PO 5 mg/kg vs IV 1 mg/kg, read-out: Bioavailability (F)): 73%
AUC(0-t) ([3]; male, IV, 1 mg/kg): 48.8 µg·h/mL
Cmax ([3]; male, IV, 1 mg/kg): 20700 ng/mL
AUC(0-t) ([3]; male, PO, 5 mg/kg): 178 µg·h/mL
Cmax ([3]; male, PO, 5 mg/kg): 18300 ng/mL
SMILES: CC(C)c1nc(Oc2c(Cl)cc(-n3ncc(=O)[nH]c3=O)cc2Cl)ncc1O [KH06]
